Assay results from ChEMBL document CHEMBL4000203, “Green synthesis and anticancer potential of chalcone linked-1,2,3-triazoles” (Eur J Med Chem, 2017).

Assays:
MCF7 [1] = test: Cytotoxicity against human MCF7 cells assessed as growth inhibition at 10 uM measured after 48 hrs by MTT assay relative to control; assay type: functional; conditions: MCF7, 48 h, read-out: GI
MIA PaCa-2 [2] = test: Cytotoxicity against human MIAPaCa2 cells assessed as growth inhibition at 10 uM measured after 48 hrs by MTT assay relative to control; assay type: functional; conditions: MIA PaCa-2, 48 h, read-out: GI
A549 [3] = test: Cytotoxicity against human A549 cells assessed as growth inhibition at 10 uM measured after 48 hrs by MTT assay relative to control; assay type: functional; conditions: A549, 48 h, read-out: GI
HepG2 [4] = test: Cytotoxicity against human HepG2 cells assessed as growth inhibition at 10 uM measured after 48 hrs by MTT assay relative to control; assay type: functional; conditions: HepG2, 48 h, read-out: GI
[5] = Cytotoxicity against human FR2 cells assessed as growth inhibition at 10 uM measured after 48 hrs by MTT assay relative to control; assay type: cell-based; conditions: FR2 cells, read-out: GI
MCF7 [6] = test: Cytotoxicity against human MCF7 cells measured after 48 hrs by MTT assay; assay type: functional, cell-based; conditions: MCF7, 48 h
MIA PaCa-2 [7] = test: Cytotoxicity against human MIAPaCa2 cells measured after 48 hrs by MTT assay; assay type: functional, cell-based; conditions: MIA PaCa-2, 48 h
A549 [8] = test: Cytotoxicity against human A549 cells measured after 48 hrs by MTT assay; assay type: functional, cell-based; conditions: A549, 48 h
HepG2 [9] = test: Cytotoxicity against human HepG2 cells measured after 48 hrs by MTT assay; assay type: functional, cell-based; conditions: HepG2, 48 h
[10] = Cytotoxicity against human FR2 cells measured after 48 hrs by MTT assay; assay type: cell-based; conditions: FR2, 48 h
[11] = Selectivity index, ratio of IC50 for human FR2 cells to IC50 for human MCF7 cells; assay type: functional
[12] = Selectivity index, ratio of IC50 for human FR2 cells to IC50 for human MIAPaCa2 cells; assay type: functional
MIA PaCa-2 [13] = test: Cell cycle arrest in human MIAPaCa2 cells assessed as apoptotic cells at 10 uM measured after 24 hrs by propidium iodide staining based flow cytometric analysis (reference value: 1%); assay type: functional
MIA PaCa-2 [14] = test: Cell cycle arrest in human MIAPaCa2 cells assessed as accumulation at G1 phase at 10 uM measured after 24 hrs by propidium iodide staining based flow cytometric analysis (reference value: 59%); assay type: functional
MIA PaCa-2 [15] = test: Cell cycle arrest in human MIAPaCa2 cells assessed as accumulation at G2 phase at 10 uM measured after 24 hrs by propidium iodide staining based flow cytometric analysis (reference value: 5%); assay type: functional
MIA PaCa-2 [16] = test: Cell cycle arrest in human MIAPaCa2 cells assessed as accumulation at S phase at 10 uM measured after 24 hrs by propidium iodide staining based flow cytometric analysis (reference value: 36%); assay type: functional
MIA PaCa-2 [17] = test: Cell cycle arrest in human MIAPaCa2 cells assessed as apoptotic cells at 30 uM measured after 24 hrs by propidium iodide staining based flow cytometric analysis (reference value: 1%); assay type: functional
MIA PaCa-2 [18] = test: Cell cycle arrest in human MIAPaCa2 cells assessed as accumulation at G1 phase at 30 uM measured after 24 hrs by propidium iodide staining based flow cytometric analysis (reference value: 59%); assay type: functional
MIA PaCa-2 [19] = test: Cell cycle arrest in human MIAPaCa2 cells assessed as accumulation at G2 phase at 30 uM measured after 24 hrs by propidium iodide staining based flow cytometric analysis (reference value: 5%); assay type: functional
MIA PaCa-2 [20] = test: Cell cycle arrest in human MIAPaCa2 cells assessed as accumulation at S phase at 30 uM measured after 24 hrs by propidium iodide staining based flow cytometric analysis (reference value: 36%); assay type: functional
MIA PaCa-2 [21] = test: Cell cycle arrest in human MIAPaCa2 cells assessed as apoptotic cells at 50 uM measured after 24 hrs by propidium iodide staining based flow cytometric analysis (reference value: 1%); assay type: functional
MIA PaCa-2 [22] = test: Cell cycle arrest in human MIAPaCa2 cells assessed as accumulation at G1 phase at 50 uM measured after 24 hrs by propidium iodide staining based flow cytometric analysis (reference value: 59%); assay type: functional
MIA PaCa-2 [23] = test: Cell cycle arrest in human MIAPaCa2 cells assessed as accumulation at G2 phase at 50 uM measured after 24 hrs by propidium iodide staining based flow cytometric analysis (reference value: 5%); assay type: functional
MIA PaCa-2 [24] = test: Cell cycle arrest in human MIAPaCa2 cells assessed as accumulation at S phase at 50 uM measured after 24 hrs by propidium iodide staining based flow cytometric analysis (reference value: 36%); assay type: functional
MIA PaCa-2 [25] = test: Cell cycle arrest in human MIAPaCa2 cells assessed as apoptotic cells measured after 24 hrs by propidium iodide staining based flow cytometric analysis; assay type: functional
MIA PaCa-2 [26] = test: Induction of mitochondrial membrane depolarization in human MIAPaCa2 cells measured after 24 hrs by […] staining based flow cytometric analysis; assay type: functional, cell-based
MIA PaCa-2 [27] = test: Induction of mitochondrial membrane depolarization in human MIAPaCa2 cells at 10 uM measured after 24 hrs by […] staining flow cytometric analysis (reference value: 2%); assay type: functional
MIA PaCa-2 [28] = test: Induction of mitochondrial membrane depolarization in human MIAPaCa2 cells at 30 uM measured after 24 hrs by […] staining flow cytometric analysis (reference value: 2%); assay type: functional
MIA PaCa-2 [29] = test: Induction of mitochondrial membrane depolarization in human MIAPaCa2 cells at 50 uM measured after 24 hrs by […] staining flow cytometric analysis (reference value: 2%); assay type: functional
MIA PaCa-2 [30] = test: Induction of apoptosis in human MIAPaCa2 cells assessed as activation of procaspase-9 measured after 24 hrs by Western blot analysis; assay type: functional, cell-based
MIA PaCa-2 [31] = test: Induction of apoptosis in human MIAPaCa2 cells assessed as activation of procaspase-8 measured after 24 hrs by Western blot analysis; assay type: functional, cell-based
MIA PaCa-2 [32] = test: Induction of apoptosis in human MIAPaCa2 cells assessed as increase in casapase-3 cleavage measured after 24 hrs by Western blot analysis; assay type: functional, cell-based
MIA PaCa-2 [33] = test: Induction of apoptosis in human MIAPaCa2 cells assessed as increase in PARP-1 cleavage measured after 24 hrs by Western blot analysis; assay type: functional, cell-based

SMILES: COc1ccc(C(=O)/C=C/c2ccc(OCc3cn(Cc4ccccc4)nn3)cc2)cc1
- inhibition of growth at 10 µM (MCF7 [1]): 70%
- inhibition of growth at 10 µM (MIA PaCa-2 [2]): 68%
- inhibition of growth at 10 µM (A549 [3]): 44%
- inhibition of growth at 10 µM (HepG2 [4]): 51%
- inhibition at 48 h, 10 µM [5]: 6%
- IC50 (MCF7 [6]): 5 µM
- IC50 (MIA PaCa-2 [7]): 4 µM
- IC50 (A549 [8]): 11 µM
- IC50 (HepG2 [9]): 9 µM
- IC50 [10]: > 100 µM
- Ratio IC50 [11]: >20
- Ratio IC50 [12]: 25
- Activity (MIA PaCa-2 [13]): 2%
- Activity (MIA PaCa-2 [14]): 36%
- Activity (MIA PaCa-2 [15]): 11%
- Activity (MIA PaCa-2 [16]): 53%
- Activity (MIA PaCa-2 [17]): 6%
- Activity (MIA PaCa-2 [18]): 52%
- Activity (MIA PaCa-2 [19]): 14%
- Activity (MIA PaCa-2 [20]): 44%
- Activity (MIA PaCa-2 [21]): 11%
- Activity (MIA PaCa-2 [22]): 41%
- Activity (MIA PaCa-2 [23]): 8%
- Activity (MIA PaCa-2 [24]): 51%
- Activity (MIA PaCa-2 [25]): Dose-dependent effect
- Activity (MIA PaCa-2 [26]): Dose-dependent effect
- Activity (MIA PaCa-2 [27]): 4%
- Activity (MIA PaCa-2 [28]): 8%
- Activity (MIA PaCa-2 [29]): 11%
- Activity (MIA PaCa-2 [30]): Dose-dependent effect
- Activity (MIA PaCa-2 [31]): Dose-dependent effect
- Activity (MIA PaCa-2 [32]): Dose-dependent effect
- Activity (MIA PaCa-2 [33]): Dose-dependent effect
